Patent publication US20080090906A1, “Use of Acetyl L-Carnitine In Combination With Propionyl L-Carnitine and Sildenafil for the Treatment of Erectile Dysfunction” (SIGMA-TAU INDUSTRIE FARMACEUTICHE RIUNITE S.P.A., priority 2004, published 2008)

Tests used:
[1] = test system: Patients undergoing bilateral nerve-sparing radical retropubic prostatectomy (bnsrrp); assay: Randomised, double-blind placebo-controlled clinical trial: IIEF-15 scores after 4 months' treatment, bnsrrp patients; assay type: in vivo, human
Procedure: (§1) To assess the activity of the combination according to the invention for the treatment of erectile dysfunction, a randomised, double-blind placebo-controlled clinical trial was conducted.
(§2) The patients entered into the trial had to meet the following inclusion criteria: • erectile dysfunction secondary to radical retropubic prostatectomy, with or without bilateral sparing of the neurovascular bundles, in patients in whom the prostatectomy had been performed at least 6 months but less than 2 years prior to entry into the clinical trial; • complete erectile function prior to the prostatectomy (this information had to be confirmed by the partner or documented in the patient's hospital file; • not on medical treatment for prostate cancer; • not on treatment for erectile dysfunction before or after prostatectomy; • normal total and free prostate antigen values; • involvement in a heterosexual relationship for at least 6 months prior to surgery.
(§3) The patients recruited into the study were divided into two main groups on the basis of whether or not they had undergone bilateral nerve sparing surgery (rrp and bnsrrp).
(§4) These two groups were further subdivided into the following subsets:
(§5) c) sildenafil 100 mg+propionyl L-carnitine 2 g+acetyl L-carnitine 2 g;
(§6) d) propionyl L-carnitine 2 g;
(§7) e) acetyl L-carnitine 2 g.
(§8) f) propionyl L-carnitine 2 g+acetyl L-carnitine 2 g;
(§9) g) sildenafil 100 mg+propionyl L-carnitine 2 g;
(§10) h) sildenafil 100 mg+acetyl L-carnitine 2 g.
(§11) The carnitines (acetyl L-carnitine and propionyl L-carnitine) were administered orally twice daily (1 g×2/day).
(§12) Sildenafil was administered (as required) and taken 1-2 hours before sexual intercourse at a dose of 100 mg.
(§13) The placebo was administered in the place of acetyl L-carnitine and/or propionyl L-carnitine and/or sildenafil.
(§14) After 4 months' treatment the following variables were analysed:
(§15) 1. erectile function (evaluated by “IIEF-15” scores: IIEF=International Index of Erectile Function);
(§16) 2. satisfaction with sexual intercourse (IIEF-15);
(§17) 4. general sexual well-being (IIEF-15);

[2] = test system: Patients undergoing bilateral nerve-sparing radical retropubic prostatectomy (bnsrrp); assay: Clinical trial: recording of nocturnal penile tumescence (NPT) with RigiScan, bnsrrp patients; assay type: in vivo, human; settings: total duration over three nights
Procedure: as §1, §2, §3, §4, §5, §6, §7, §8, §9, §10, §11, §12, §13, §14
(§18) 5. recording of nocturnal penile tumescence (NPT) [evaluated with RigiScan (Dacomed-Minnesota). A >70% increase in rigidity compared to baseline at the base of the penis and >60% at the upper end of the penis, a >2 cm increase in circumference at the upper end of the penis and >3 cm at the base were considered “complete erection”. The total duration (minutes) of the recording period on three nights was assessed.

[3] = test system: Patients undergoing radical retropubic prostatectomy (rrp) without bilateral sparing of the neurovascular bundles; assay: Randomised, double-blind placebo-controlled clinical trial: IIEF-15 scores after 4 months' treatment, rrp patients; assay type: in vivo, human; settings: rrp patients without nerve sparing
Procedure: as §1, §2, §3, §4, §5, §6, §7, §8, §9, §10, §11, §12, §13, §14, §15, §16, §17

[4] = test system: Patients undergoing radical retropubic prostatectomy (rrp) without bilateral sparing of the neurovascular bundles; assay: Clinical trial: recording of nocturnal penile tumescence (NPT) with RigiScan, rrp patients; assay type: in vivo, human; settings: rrp patients without nerve sparing, total duration over three nights
Procedure: as §1, §2, §3, §4, §5, §6, §7, §8, §9, §10, §11, §12, §13, §14, §18

patients undergoing rrp = settings: cited from earlier work
[5] = test system: patients undergoing bnsrrp; settings: cited from earlier work
[6] = after therapy (4 months' treatment)

Row | SMILES | Erectile function, mean ± s.d. [1, 6] | General sexual well-being, mean ± s.d. [1, 6] | Orgasm, mean ± s.d. [1, 6] | Satisfaction with sexual intercourse, mean ± s.d. [1, 6] | Erectile function, mean ± s.d. ([1]; before therapy (baseline)) | General sexual well-being, mean ± s.d. ([1]; before therapy (baseline)) | Orgasm, mean ± s.d. ([1]; before therapy (baseline)) | Satisfaction with sexual intercourse, mean ± s.d. ([1]; before therapy (baseline)) | Recording of nocturnal penile tumescence (NPT), mean ± s.d. [2, 6] | Recording of nocturnal penile tumescence (NPT), mean ± s.d. ([2]; before therapy (baseline)) | Erectile function, mean ± s.d. [3, 6] | General sexual well-being, mean ± s.d. [3, 6] | Orgasm, mean ± s.d. [3, 6] | Satisfaction with sexual intercourse, mean ± s.d. [3, 6] | Erectile function, mean ± s.d. ([3]; before therapy (baseline)) | General sexual well-being, mean ± s.d. ([3]; before therapy (baseline)) | Orgasm, mean ± s.d. ([3]; before therapy (baseline)) | Satisfaction with sexual intercourse, mean ± s.d. ([3]; before therapy (baseline)) | Recording of nocturnal penile tumescence (NPT), mean ± s.d. [4, 6] | Recording of nocturnal penile tumescence (NPT), mean ± s.d. ([4]; before therapy (baseline)) | further results
1 | CC(=O)O[C@H](CC(=O)[O-])C[N+](C)(C)C [Acetyl L-carnitine 2 g, acetyl L-carnitine] | 17.2 ± 3.5 IIEF 15 Score | 3.9 ± 1.1 IIEF 15 score | 4.0 ± 0.9 IIEF 15 score | 4.0 ± 1.1 IIEF 15 score | 11.3 ± 3.8 IIEF 15 Score | 2.9 ± 1.0 IIEF 15 score | 3.2 ± 1.1 IIEF 15 score | 3.1 ± 1.1 IIEF 15 score | 79.0 ± 12.3 min | 70.8 ± 14.9 min | 4.1 ± 1.0 IIEF 15 score | 1.2 ± 0.5 IIEF 15 score | 0.9 ± 0.4 IIEF 15 score | 1.9 ± 0.6 IIEF 15 score | 3.2 ± 1.1 IIEF 15 score | 1.0 ± 0.4 IIEF 15 score | 0.8 ± 0.6 IIEF 15 score | 1.8 ± 0.8 IIEF 15 score | 38.2 ± 5.7 min | 37.7 ± 8.8 min | 
2 | CCCc1nn(C)c2c(=O)[nH]c(-c3cc(S(=O)(=O)N4CCN(C)CC4)ccc3OCC)nc12 [Sildenafil 100 mg, sildenafil] | 21.7 ± 6.8 IIEF 15 Score | 5.4 ± 2.7 IIEF 15 score | 5.9 ± 2.9 IIEF 15 score | 4.8 ± 2.5 IIEF 15 score | 11.9 ± 4.0 IIEF 15 Score | 2.7 ± 1.0 IIEF 15 score | 3.0 ± 0.9 IIEF 15 score | 3.1 ± 1.1 IIEF 15 score | 85.9 ± 14.3 min | 70.4 ± 13.2 min | 9.2 ± 1.9 IIEF 15 score | 2.4 ± 2.0 IIEF 15 score | 2.2 ± 0.9 IIEF 15 score | 2.9 ± 1.6 IIEF 15 score | 3.8 ± 2.9 IIEF 15 score | 1.1 ± 0.8 IIEF 15 score | 0.9 ± 0.6 IIEF 15 score | 1.3 ± 0.8 IIEF 15 score | 39.1 ± 7.9 min | 37.1 ± 8.5 min | Patients with recovery of sexual function (patients undergoing rrp): approximately 15%; Patients with recovery of sexual function [5]: approximately 45%
3 | CCC(=O)O[C@H](CC(=O)[O-])C[N+](C)(C)C [Propionyl L-carnitine 2 g, propionyl L-carnitine] | 18.1 ± 3.2 IIEF 15 Score | 4.1 ± 0.9 IIEF 15 score | 4.1 ± 1.1 IIEF 15 score | 3.9 ± 1.1 IIEF 15 score | 12.2 ± 3.9 IIEF 15 Score | 2.9 ± 1.6 IIEF 15 score | 3.0 ± 1.1 IIEF 15 score | 3.2 ± 1.2 IIEF 15 score | 77.1 ± 16.1 min | 68.2 ± 13.5 min | 4.0 ± 1.1 IIEF 15 score | 1.4 ± 0.5 IIEF 15 score | 1.0 ± 0.3 IIEF 15 score | 1.9 ± 0.6 IIEF 15 score | 3.3 ± 1.1 IIEF 15 score | 1.3 ± 0.5 IIEF 15 score | 0.7 ± 0.3 IIEF 15 score | 1.7 ± 0.4 IIEF 15 score | 36.4 ± 5.3 min | 35.0 ± 9.1 min | 
